Reference: ChEMBL document CHEMBL5360547 (Eur J Med Chem, 2023)
Activity calls are given as the source filed them. No cut-off for these calls is given here.

tested on: Cortical neurone; assay: Neuroprotective activity against oxygen glucose deprivation induced ischemic stroke model in primary C57BL/6J E14-17 mouse Cortical neurons assessed as increase in cell viability at 1 uM incubated for 24 hrs by CCK-8 assay (Rvb= 57.43 +/- 2.54 %); assay type: functional; settings: not given

| SMILES | Activity [%] |
| --- | --- |
| CC(C)CN[C@@H]1CC[C@@H](c2ccc(Cl)c(Cl)c2)c2ccccc21 (relative stereo) | 56.47 |
| NCCN[C@@H]1CC[C@@H](c2ccc(Cl)c(Cl)c2)c2ccccc21 (relative stereo) | 24.79 |
| COc1ccc(CN[C@@H]2CC[C@@H](c3ccc(Cl)c(Cl)c3)c3ccccc32)cc1 (relative stereo) | 56.57 |
| CC(C)(C)c1ccc(CN[C@@H]2CC[C@@H](c3ccc(Cl)c(Cl)c3)c3ccccc32)cc1 (relative stereo) | 56.78 |
| Clc1ccc([C@@H]2CC[C@@H](NCc3ccc4c(c3)OCO4)c3ccccc32)cc1Cl (relative stereo) | 63.19 |
| CC(C)(C)OC(=O)NCCN[C@@H]1CC[C@@H](c2ccc(Cl)c(Cl)c2)c2ccccc21 (relative stereo) | 58.81 |
| CCCCCC(C)N[C@@H]1CC[C@@H](c2ccc(Cl)c(Cl)c2)c2ccccc21 (relative stereo) | 58.02 |
| Clc1ccc([C@@H]2CC[C@@H](NCCN3CCNCC3)c3ccccc32)cc1Cl | 56.76 |

same assay, conditions: 24 h, 1 µM

| SMILES | Activity [%] |
| --- | --- |
| CN[C@H]1CC[C@@H](c2ccc(Cl)c(Cl)c2)c2ccccc21 (racemic) [SERTRALINE] | 60.36 |

tested on: Cortical neurone; assay: Cytotoxicity against primary C57BL/6J E14-17 mouse Cortical neuron assessed as decrease in cell viability at 1 uM incubated for 24 hrs by CCK-8 assay relative to control; assay type: toxicity, cell-based; settings: not given

| SMILES | Activity [%] |
| --- | --- |
| CN[C@H]1CC[C@@H](c2ccc(Cl)c(Cl)c2)c2ccccc21 (racemic) [SERTRALINE] | 96.32 |
| CC(C)CN[C@@H]1CC[C@@H](c2ccc(Cl)c(Cl)c2)c2ccccc21 (relative stereo) | 96.1 |
| NCCCCCCN[C@@H]1CC[C@@H](c2ccc(Cl)c(Cl)c2)c2ccccc21 (relative stereo) | 48.84 |
| NCCN[C@@H]1CC[C@@H](c2ccc(Cl)c(Cl)c2)c2ccccc21 (relative stereo) | 103.68 |
| COc1ccc(CN[C@@H]2CC[C@@H](c3ccc(Cl)c(Cl)c3)c3ccccc32)cc1 (relative stereo) | 98.78 |
| CC(C)(C)c1ccc(CN[C@@H]2CC[C@@H](c3ccc(Cl)c(Cl)c3)c3ccccc32)cc1 (relative stereo) | 93.91 |
| Clc1ccc([C@@H]2CC[C@@H](NCc3ccc4c(c3)OCO4)c3ccccc32)cc1Cl (relative stereo) | 104.95 |
| CC(C)(C)OC(=O)NCCN[C@@H]1CC[C@@H](c2ccc(Cl)c(Cl)c2)c2ccccc21 (relative stereo) | 98.85 |
| CCCCCC(C)N[C@@H]1CC[C@@H](c2ccc(Cl)c(Cl)c2)c2ccccc21 (relative stereo) | 89.48 |
| Clc1ccc([C@@H]2CC[C@@H](NCCN3CCNCC3)c3ccccc32)cc1Cl | 90.76 |

tested on: Cortical neurone; assay: Cytotoxicity against primary C57BL/6J E14-17 mouse Cortical neuron assessed as decrease in cell viability at 10 uM incubated for 24 hrs by CCK-8 assay relative to control; assay type: toxicity, cell-based; settings: not given

| SMILES | Activity [%] |
| --- | --- |
| CN[C@H]1CC[C@@H](c2ccc(Cl)c(Cl)c2)c2ccccc21 (racemic) [SERTRALINE] | 92.98 |
| CC(C)CN[C@@H]1CC[C@@H](c2ccc(Cl)c(Cl)c2)c2ccccc21 (relative stereo) | 73.99 |
| NCCCCCCN[C@@H]1CC[C@@H](c2ccc(Cl)c(Cl)c2)c2ccccc21 (relative stereo) | 22.62 |
| NCCN[C@@H]1CC[C@@H](c2ccc(Cl)c(Cl)c2)c2ccccc21 (relative stereo) | 24.73 |
| COc1ccc(CN[C@@H]2CC[C@@H](c3ccc(Cl)c(Cl)c3)c3ccccc32)cc1 (relative stereo) | 85.78 |
| CC(C)(C)c1ccc(CN[C@@H]2CC[C@@H](c3ccc(Cl)c(Cl)c3)c3ccccc32)cc1 (relative stereo) | 93.23 |
| Clc1ccc([C@@H]2CC[C@@H](NCc3ccc4c(c3)OCO4)c3ccccc32)cc1Cl (relative stereo) | 95.94 |
| CC(C)(C)OC(=O)NCCN[C@@H]1CC[C@@H](c2ccc(Cl)c(Cl)c2)c2ccccc21 (relative stereo) | 94.48 |
| CCCCCC(C)N[C@@H]1CC[C@@H](c2ccc(Cl)c(Cl)c2)c2ccccc21 (relative stereo) | 84.74 |
| Clc1ccc([C@@H]2CC[C@@H](NCCN3CCNCC3)c3ccccc32)cc1Cl | 31.8 |

tested on: Cortical neurone; assay: Neuroprotective activity against oxygen glucose deprivation induced ischemic stroke model in primary C57BL/6J E14-17 mouse Cortical neurons assessed as increase in cell viability at 10 uM incubated for 24 hrs by CCK-8 assay (Rvb= 57.43 +/- 2.54 %); assay type: functional; settings: not given

| SMILES | Activity [%] |
| --- | --- |
| CC(C)CN[C@@H]1CC[C@@H](c2ccc(Cl)c(Cl)c2)c2ccccc21 (relative stereo) | 30.22 |
| NCCCCCCN[C@@H]1CC[C@@H](c2ccc(Cl)c(Cl)c2)c2ccccc21 (relative stereo) | 3.43 |
| NCCN[C@@H]1CC[C@@H](c2ccc(Cl)c(Cl)c2)c2ccccc21 (relative stereo) | 3.53 |
| COc1ccc(CN[C@@H]2CC[C@@H](c3ccc(Cl)c(Cl)c3)c3ccccc32)cc1 (relative stereo) | 60.68 |
| CC(C)(C)c1ccc(CN[C@@H]2CC[C@@H](c3ccc(Cl)c(Cl)c3)c3ccccc32)cc1 (relative stereo) | 60.98 |
| Clc1ccc([C@@H]2CC[C@@H](NCc3ccc4c(c3)OCO4)c3ccccc32)cc1Cl (relative stereo) | 57.62 |
| CC(C)(C)OC(=O)NCCN[C@@H]1CC[C@@H](c2ccc(Cl)c(Cl)c2)c2ccccc21 (relative stereo) | 54.41 |
| CCCCCC(C)N[C@@H]1CC[C@@H](c2ccc(Cl)c(Cl)c2)c2ccccc21 (relative stereo) | 60.07 |
| Clc1ccc([C@@H]2CC[C@@H](NCCN3CCNCC3)c3ccccc32)cc1Cl | 28.28 |

same assay, conditions: 24 h, 10 µM

| SMILES | Activity [%] |
| --- | --- |
| CN[C@H]1CC[C@@H](c2ccc(Cl)c(Cl)c2)c2ccccc21 (racemic) [SERTRALINE] | 45.76 |

tested on: Cortical neurone; assay: Neuroprotective activity against oxygen glucose deprivation induced ischemic stroke model in primary C57BL/6J E14-17 mouse Cortical neurons assessed as increase in cell viability at 0.5 to 20 uM incubated for 24 hrs by CCK-8 assay; assay type: functional, cell-based; settings: dose 0.5-20 µM

| SMILES | Activity |
| --- | --- |
| C=CCC(=O)N[C@@H]1CC[C@@H](c2ccc(Cl)c(Cl)c2)c2ccccc21 (relative stereo) | Active |
| Clc1ccc([C@@H]2CC[C@@H](N3CCCC3)c3ccccc32)cc1Cl (relative stereo) | Active |
| CN(C)[C@H]1CC[C@@H](c2ccc(Cl)c(Cl)c2)c2ccccc21 | Active |
| CN[C@H]1CC[C@@H](c2ccc(Cl)c(Cl)c2)c2ccccc21 | Active |
| CCCC(=O)N[C@@H]1CC[C@@H](c2ccc(Cl)c(Cl)c2)c2ccccc21 (relative stereo) | Active |
| CCCCCCCCN(C)[C@@H]1CC[C@@H](c2ccc(Cl)c(Cl)c2)c2ccccc21 (racemic) | Active |
| CCCCCCCCN(C)[C@H]1CC[C@@H](c2ccc(Cl)c(Cl)c2)c2ccccc21 (racemic) | Active |
| O=C(Cc1ccccc1)N[C@@H]1CC[C@@H](c2ccc(Cl)c(Cl)c2)c2ccccc21 (relative stereo) | Active |

tested on: Cortical neurone; assay: Cytotoxicity against primary C57BL/6J E14-17 mouse Cortical neuron assessed as decrease in cell viability upto 50 uM incubated for 24 hrs by CCK-8 assay; assay type: toxicity, cell-based; settings: not given

| SMILES | Activity |
| --- | --- |
| C=CCC(=O)N[C@@H]1CC[C@@H](c2ccc(Cl)c(Cl)c2)c2ccccc21 (relative stereo) | Toxic |
| Clc1ccc([C@@H]2CC[C@@H](N3CCCC3)c3ccccc32)cc1Cl (relative stereo) | Toxic |
| CN(C)[C@H]1CC[C@@H](c2ccc(Cl)c(Cl)c2)c2ccccc21 | Non-Toxic |
| CCCC(=O)N[C@@H]1CC[C@@H](c2ccc(Cl)c(Cl)c2)c2ccccc21 (relative stereo) | Toxic |
| CCCCCCCCN(C)[C@@H]1CC[C@@H](c2ccc(Cl)c(Cl)c2)c2ccccc21 (racemic) | Non-Toxic |
| O=C(Cc1ccccc1)N[C@@H]1CC[C@@H](c2ccc(Cl)c(Cl)c2)c2ccccc21 (relative stereo) | Toxic |
